US20190125826A1, “METHODS AND PHARMACEUTICAL COMPOSITION FOR THE TREATMENT OF INFLAMMATORY SKIN DISEASES ASSOCIATED WITH DESMOGLEIN-1 DEFICIENCY” (INSERM (INSTITUT NATIONAL DE LA SANTÉ ET DE LA MÉDICALE), priority 2016, published 2019)

Biological target: T1, IKK-2 (Homo sapiens, UniProt O14920)
T1 construct: endogenous in cells; host or cells: primary keratinocytes from a healthy control and from Patient#1
T1 sequence (O14920 1-756): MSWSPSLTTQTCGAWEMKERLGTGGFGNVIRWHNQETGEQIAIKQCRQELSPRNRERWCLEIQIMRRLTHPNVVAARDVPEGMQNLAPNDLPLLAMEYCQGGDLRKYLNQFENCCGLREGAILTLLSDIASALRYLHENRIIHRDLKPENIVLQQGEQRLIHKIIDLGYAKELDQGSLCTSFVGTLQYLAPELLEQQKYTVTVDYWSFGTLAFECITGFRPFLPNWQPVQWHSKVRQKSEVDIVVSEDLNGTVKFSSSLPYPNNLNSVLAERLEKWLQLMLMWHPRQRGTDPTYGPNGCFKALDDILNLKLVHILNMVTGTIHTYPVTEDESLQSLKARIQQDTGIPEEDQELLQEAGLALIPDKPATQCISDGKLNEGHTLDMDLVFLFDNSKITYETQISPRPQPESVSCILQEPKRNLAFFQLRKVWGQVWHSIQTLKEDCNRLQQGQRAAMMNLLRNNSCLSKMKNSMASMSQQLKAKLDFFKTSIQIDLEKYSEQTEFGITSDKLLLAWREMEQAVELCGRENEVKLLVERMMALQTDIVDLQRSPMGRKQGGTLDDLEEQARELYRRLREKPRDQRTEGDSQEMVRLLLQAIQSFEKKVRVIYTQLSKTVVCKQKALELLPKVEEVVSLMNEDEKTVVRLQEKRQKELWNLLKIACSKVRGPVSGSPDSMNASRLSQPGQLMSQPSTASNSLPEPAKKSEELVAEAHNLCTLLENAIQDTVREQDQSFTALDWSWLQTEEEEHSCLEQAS
Test: Inhibition of IKK-2 by ML120B in keratinocytes (IL8 mRNA by RT-qPCR)
Format: cell-based
Details: Patient#1 keratinocytes; ML120B 20 μM preincubated 1 h, then 10 ng/ml IL-1β, 24 h
Procedure: Total RNAs were isolated from cultured keratinocytes, HEK293T cells and frozen skin biopsies from the two patients and controls using the RNeasy Plus Minikit (Qiagen GmbH, Hilden, Germany), according to the manufacturer's instructions. RNA samples were reverse-transcribed into cDNA using the High Capacity cDNA Reverse Transcriptase Kit (Applied Biosystems, Foster City, Calif., USA). Real-time PCR was carried out using the Fast SYBR Green PCR Master Mix (PE Applied Biosystems) on an ABI prism 7000 (PE Applied Biosystems). RT-qPCR primers were designed using the sequences available in Ensembl and spanned an intron-exon boundary. The amounts of the various mRNAs were normalized against the amount of beta actin RNA measured by RT-qPCR in each sample. The results were analyzed with DataAssist® (version 3.01, Applied Biosystems), which uses the comparative Ct (ddCt) method.
Keratinocytes from a healthy control and from Patient#1 were seeded into 12-well plates (100 000 cells/well). 24 hours later, keratinocytes were preincubated with ML120B 20 μM at 37° C. for 1 h and then stimulated with 10 ng/ml IL-1β. 24 hours after the stimulation, the cells were pelleted for RNA extraction. ML120B was sent as a gift by Emmanuel Laplantine (Institut Pasteur, Paris, France).

## COc1c(Cl)cc2c([nH]c3cnccc32)c1NC(=O)c1cccnc1C [ML120B]
  production of IL8: restored the normal production of IL8
